Experimental data from patent publication US11583572B2, “Encapsulation of ultra-stable insulin analogues with polymer melts” (CASE WESTERN RESERVE UNIVERSITY, priority 2015, dated 2023).
Bridges are numbered along the chain shown (N, C = ends). Where no end group is shown, it is not given here.

Assays:
[1] = biological target: A isoform of the insulin receptor (Homo sapiens, UniProt P06213)
[2] = Elution of protein from PLGA polymer cylinders in phosphate-buffered saline (Bradford assay calibrated by ELISA); format: physicochemical; conditions: 5% PEG, PBS pH 7.4, 37° C.
Method: FIG. 4 is a graph showing elution of ultra-stable single-chain analogue (SCI) from PLGA polymer (50-50%) in phosphate-buffered saline (pH 7.4 and 37° C.). Horizontal axis denotes soaking time. Vertical axis denotes nanograms of insulin analogue (dark gray triangles) or relative Bradford-active material in control polymers containing hen egg white lysozyme (light gray squares) or no protein (dark gray diamonds). The latter represents background signal in the Bradford assay due to non-protein material. Horizontal plateau at days 10-15 represents no further elution of protein from the polymers. Samples were made with 5% PEG (mean molecular mass 8 kDa) to optimize the near-linear rate of SCI elution between 1-10 days. Immediate burst release of a portion of the material is not shown.
Elution of insulin analogue protein from a polymer melt in phosphate buffered saline (PBS) at pH 7.4 was also examined. Test cylindrical polymers were prepared with 50%-50% PLGA containing 25% weight/weight of a single-chain insulin (SCI) analogue stabilized by a fourth disulfide bridge between residues B4 and A10. […]
The cumulative amounts of protein released are also provided below in Table 1. In this table the micrograms of insulin corresponding to the Bradford assay was verified by ELISA whereas the readings for lysozyme are uncalibrated by an independent assay.

A isoform of the insulin receptor, sequence (P06213 28-746 isoform P06213-2 limits assumed): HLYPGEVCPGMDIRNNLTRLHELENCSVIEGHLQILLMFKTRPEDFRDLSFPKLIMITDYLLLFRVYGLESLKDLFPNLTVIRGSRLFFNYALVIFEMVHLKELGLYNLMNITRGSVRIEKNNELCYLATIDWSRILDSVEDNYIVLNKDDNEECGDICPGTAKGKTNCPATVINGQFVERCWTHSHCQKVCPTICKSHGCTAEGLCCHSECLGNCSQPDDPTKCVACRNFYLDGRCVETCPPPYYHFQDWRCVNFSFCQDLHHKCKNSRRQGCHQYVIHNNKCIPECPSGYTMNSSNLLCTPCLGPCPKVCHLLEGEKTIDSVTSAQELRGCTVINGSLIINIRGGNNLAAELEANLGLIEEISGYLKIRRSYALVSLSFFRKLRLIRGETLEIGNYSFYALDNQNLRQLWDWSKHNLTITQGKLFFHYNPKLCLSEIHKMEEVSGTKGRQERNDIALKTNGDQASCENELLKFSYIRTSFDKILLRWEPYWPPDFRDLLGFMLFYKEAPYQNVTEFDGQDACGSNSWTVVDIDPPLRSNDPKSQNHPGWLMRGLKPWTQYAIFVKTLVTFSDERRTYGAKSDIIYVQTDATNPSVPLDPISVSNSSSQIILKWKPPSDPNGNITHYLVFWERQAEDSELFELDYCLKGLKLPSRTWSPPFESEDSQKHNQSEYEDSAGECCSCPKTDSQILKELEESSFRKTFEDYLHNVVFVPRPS
A isoform of the insulin receptor, sequence (P06213 763-1382 partner limits assumed): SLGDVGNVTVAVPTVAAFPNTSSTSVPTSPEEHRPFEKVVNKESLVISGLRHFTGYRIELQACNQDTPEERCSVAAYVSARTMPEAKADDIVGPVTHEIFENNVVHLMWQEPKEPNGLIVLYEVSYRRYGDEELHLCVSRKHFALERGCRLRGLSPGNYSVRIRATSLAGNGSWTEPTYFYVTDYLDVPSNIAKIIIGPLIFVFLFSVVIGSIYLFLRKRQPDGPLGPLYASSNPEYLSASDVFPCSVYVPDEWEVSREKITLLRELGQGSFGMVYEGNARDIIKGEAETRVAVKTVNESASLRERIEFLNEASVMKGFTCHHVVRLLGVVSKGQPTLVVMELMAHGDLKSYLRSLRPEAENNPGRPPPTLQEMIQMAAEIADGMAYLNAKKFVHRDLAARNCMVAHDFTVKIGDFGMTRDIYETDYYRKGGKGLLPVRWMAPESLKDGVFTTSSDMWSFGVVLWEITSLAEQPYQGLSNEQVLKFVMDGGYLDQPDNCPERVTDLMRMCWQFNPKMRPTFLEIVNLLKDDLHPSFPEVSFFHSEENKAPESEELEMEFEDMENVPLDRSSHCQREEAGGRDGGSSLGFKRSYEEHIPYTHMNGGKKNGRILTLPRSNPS

Substance	affinity for the A isoform of the insulin receptor relative to human insulin [1]	protein release from PLGA polymer during days 10-15 [2]
FVNCHLCGSHLVEALYLVCGERGFFYTDPTEEGPRRGIVEQCCHSCCSLEQLENYCN (disulfide 4-46, 7-43, 19-56, 42-47) [4SS 81-04]	120±20%	
hen egg-white lysozyme: control protein in analogous co-polymer instead of an insulin analogue		no further release
